{
  "source": "paper PMC9499467",
  "about": "“Phenanthroindolizidine Alkaloids Isolated from Tylophora ovata as Potent Inhibitors of Inflammation, Spheroid Growth, and Invasion of Triple-Negative Breast Cancer” (International Journal of Molecular Sciences, 2022)",
  "key": {"MDA-MB-468-UnaG": {"test_system": "MDA-MB-468-UnaG", "assay": "Cell cycle studies (PI-DNA flow cytometry) in MDA-MB-468-UnaG", "type": "cell-based", "settings": "normoxia", "method": "(§1) To investigate cell cycle progression in the presence of compound (1s) or paclitaxel (Santa Cruz Biotechnology; #sc-201439), we quantified the DNA content in the cell. On day 1, the cells were seeded in 1 mL into a 24 well plate (Greiner; #662160). On day 2, MDA-MB-468-UnaG were pre-treated either without (normoxia) or with 100 µM CoCl2 (hypoxia) (Sigma-Aldrich; #C8661) for 24 h before compounds were applied. On day 2 for MDA-MB-231 or on day 3 for MDA-MB-468-UnaG, paclitaxel was applied at the concentrations 15 nM, 37 nM, and 100 nM, and compound (1s) was applied at concentrations ranging from 2 nM to 1000 nM. Post-treatment cells were washed in 1× PBS (Thermo Fisher Scientific; #14190); fixed in 70% (v/v) ethanol overnight at 4 °C; washed again in 1× PBS; and, finally, DNA was stained for 15 min at 37 °C in the presence of 10 µg/mL propium iodide (PI; Sigma-Aldrich; #4864) and 100 µg/mL RNase A (Thermo Fisher Scientific; #EN0531) dissolved in 0.1% triton™ X-100 (Sigma-Aldrich; #X100), dissolved in PBS. The fluorescence signal resulting from PI-DNA complex formation was recorded using the flow cytometer CytoFlex (Beckmann Coulter, Krefeld, Germany). The cell cycle phase population was determined based on the DNA content in a set of chromosomes (n) in a cell using the integrated software CytExpert (Beckmann Coulter): sub-G0/G1 (<2n), G0/G1 (2n), S (>2n, <4n), G2/M (4n) or hyperploid cells (>4n) (see Figure S10)."}, "[1]": {"test_system": "MDA-MB-231 monoculture spheroids", "assay": "3D invasion of monoculture spheroids into matrigel", "type": "cell-based, human", "settings": "10 nM, 48 h", "method": "To study TNBC invasion in an extracellular matrix (ECM)-like environment, mono-culture spheroids of MDA-MB-231 were generated in matrigel®, as described. In brief, 3000 MDA-MB-231 cells were seeded in 0.25% (v/v) matrigel® (Corning, Taufkirchen, Germany; #356432) into a low-attachment 96 well plate (Greiner; #650970 or Cenibra, Bramsche, Germany; #ULA-96U). For cell aggregation, cells were centrifugated for 10 min at 136× g at 4 °C before being grown for 72 h. Invasion was allowed for another […] before analyzing at least three spheroids per treatment group. For that purpose, brightfield images of the spheroids were acquired at 50× g magnification using the microscope Axio Vert.A1 (Zeiss). The spheroid area before treatment and the spheroid area including the invaded area after compound treatment were quantified in brightfield images using Fiji (open-source software; version 1.52i).\nFigure 6 Compound (1s) blocks TNBC monoculture spheroid invasion in a matrigel®-based extracellular matrix (ECM). […] (a) Invaded area was measured using Fiji (open-source software; version 1.52i) with manually picked positions (white squares) to determine the outline (yellow line) of the spheroid area within 0 h and after 48-h treatment. […] (c) Invaded area is calculated by normalizing the spheroid area after 48 h treatment to the spheroid size at 0 h. […]"}, "HIF-1α": {"test_system": "HIF-1α", "assay": "HIF inhibition, HIF-mediated UnaG reporter expression", "type": "cell-based", "settings": "for decrease of HIF-1α-mediated UnaG expression: normoxia, MDA-MB-468-UnaG", "method": "The HIF activity after treatment with compound (1s) or with the commercially available NFκB inhibitor BAY 11-7085 ((Hycultec, Beutelsbach, Germany; #HY-10257-10),) for 24 h was determined using the UnaG-reporter gene cell line MDA-MB-468-UnaG. On day 1, 1.5 × 10^4 MDA-MB-468-UnaG cells were seeded into a black 96 well plate (Greiner; #655090). […] HIF-mediated UnaG expression was recorded in z-stacked images using the CQ1 high-content imaging system (Yokogawa, Wehr, Germany; 100× g magnification). Beforehand, the UnaG fluorescence intensity was determined in UnaG-expressing cell clones (Figure S5).\nFigure 7 Compound (1s) decreases HIF-dependent gene transcription. MDA-MB-468-UnaG cells were pre-treated for 1 h without (CTRL) or with compound (1s) or BAY 11-7085 (BAY) before being grown (a,b) in the absence (normoxia; CTRL) or (c,d) presence of 100 µM CoCl2 (hypoxia) for another 24 h. (a,c) Representative fluorescence images. Scale bar: 200 µm (b,d) Total fluorescence intensity of HIF-mediated UnaG was normalized to the CTRL group. Statistical difference was calculated with one-way ANOVA (b) vs. CTRL (normoxia) (ns = not significant, * p < 0.05). (d) vs. CTRL (hypoxia) (# p < 0.05); vs. CoCl2 (* p < 0.05, ** p < 0.01, *** p < 0.001). (b,d) Columns represent the mean ± SEM (n = 3)."}, "MDA-MB-231": {"test_system": "MDA-MB-231", "assay": "Cell cycle studies (PI-DNA flow cytometry) in MDA-MB-231", "type": "cell-based, human", "settings": "MDA-MB-231, 20 nM, 72 h", "method": "as §1, with “Post-treatment cells were washed in 1× PBS (Thermo Fisher Scientific; #14190); fixed in 70% (v/v) ethanol overnight at 4 °C; washed again in 1× PBS; and, finally, DNA was stained for 15 min at 37 °C in the presence of 10 µg/mL propium iodide (PI; Sigma-Aldrich; #4864) and 100 µg/mL RNase A (Thermo Fisher Scientific; #EN0531) dissolved in 0.1% triton™ X-100 (Sigma-Aldrich; #X100), dissolved in PBS.” left out\nFSC-A and FSC-height (H). (c) To evaluate cell cycles phases, the range of analyzed cells was deter-mined within the (b) single cells by excluding recorded events that extend the proportional distri-bution of the DNA chromosome set (n): < 2n; > 4n. […]"}},
  "data": [
    {"smiles": "COc1ccc2c3c(c4cc(OC)c(OC)cc4c2c1)CN1CCCC1C3O", "note": "(centres unmarked) [Compound (1s), O-methyltylophorinidine]", "values": [
      {"measurement": "sub-G0/G1 population", "setting": "MDA-MB-468-UnaG; 48 h", "result": "increase in the sub-G0/G1 population"},
      {"measurement": "cell cycle phase population", "setting": "MDA-MB-468-UnaG; (1s) 20 nM 72 h, paclitaxel within 24 h", "result": "significant increase in G2/M population"},
      {"measurement": "blockade of invasion (invaded area)", "setting": "[1]", "result": "approximately 65%"},
      {"measurement": "reduction of HIF-1α-activity", "setting": "HIF-1α; CoCl2-simulated hypoxia (100 µM), 20 nM, 24 h", "result": "14 ± 4", "unit": "%"},
      {"measurement": "decrease of HIF-1α-mediated UnaG expression", "setting": "HIF-1α; 10 nM, 24 h", "result": "11 ± 3", "unit": "%"},
      {"measurement": "decrease of HIF-1α-mediated UnaG expression", "setting": "HIF-1α; 20 nM, 24 h", "result": "13 ± 4", "unit": "%"},
      {"measurement": "CoCl2-induced increase in HIF-1α-activity", "setting": "HIF-1α; pre-treatment before CoCl2-simulated hypoxia, 6 µM BAY 11-7085, 2, 5, 10, 20 nM (1s)", "result": "blocked"}
    ]},
    {"smiles": "COc1ccc2c3c(c4cc(OC)c(OC)cc4c2c1)CN1CCCC1C3O", "note": "(centres unmarked) [Compound (1), O-methyltylophorinidine]", "values": [
      {"measurement": "cell cycle phase population", "setting": "MDA-MB-231", "result": "Cell populations increased in the S-phase as well as in the G2/M phase"}
    ]}
  ]
}
